Measurements: the NIST ThermoML archive (doi:10.1016/j.jct.2005.03.019)
“And” between values parts separate entries of the source, which are not always exact repeats. Equal values may be shown once.

How the values were obtained:
[1] = 101 kPa, Liquid, Vibrating tube method
[2] = refractive index (Na D-line) (dimensionless); details: 101.33 kPa, Liquid, Standard Abbe refractometry
[3] = xn = mol fraction of the nth substance listed; details: 101 kPa, Liquid, Vibrating tube method

CC1COC(=O)O1 (stereo not drawn) [4-methyl-1,3-dioxolan-2-one]
Details | mass density, 293.15 K [kg/m3] | mass density, 303.15 K [kg/m3] | mass density, 313.15 K | mass density, 323.15 K [kg/m3] | mass density, 333.15 K [kg/m3] | mass density, 343.15 K [kg/m3] | mass density, 353.15 K [kg/m3] | refractive index, 293.15 K
[1] | 1200.3 | 1180.6 | 1161.3 kg/m3 and 1161.2 kg/m3 | 1142.4 | 1124 | 1106 | 1088.4 | –
[2] | – | – | – | – | – | – | – | 1.42095

CC1COC(=O)O1 (stereo not drawn) [4-methyl-1,3-dioxolan-2-one] + C=Cc1ccccc1
[3], x2 = 0
Details | mass density [kg/m3]
293.15 K | 1200.3
303.15 K | 1180.6
313.15 K | 1161.2
333.15 K | 1124
343.15 K | 1106
353.15 K | 1088.4

c1ccccc1 [benzene]
Details | mass density, 293.15 K [kg/m3] | mass density, 303.15 K [kg/m3] | mass density, 313.15 K [kg/m3] | mass density, 323.15 K [kg/m3] | mass density, 333.15 K [kg/m3] | mass density, 343.15 K [kg/m3] | mass density, 353.15 K [kg/m3] | refractive index, 298.15 K
[1] | 877.8 | 868 | 857.9 | 847.4 | 836.6 | 825.4 | 813.9 | –
[2] | – | – | – | – | – | – | – | 1.5009

c1ccccc1 [benzene] + CC1COC(=O)O1
[3], x1 = 1
Details | mass density [kg/m3]
293.15 K | 877.8
303.15 K | 868
313.15 K | 857.9
323.15 K | 847.4
333.15 K | 836.6
343.15 K | 825.4
353.15 K | 813.9

CCc1ccccc1 [ethylbenzene]
Details | mass density, 293.15 K [kg/m3] | mass density, 303.15 K [kg/m3] | mass density, 313.15 K [kg/m3] | mass density, 323.15 K [kg/m3] | mass density, 333.15 K [kg/m3] | refractive index, 298.15 K
[1] | 867.8 | 858.6 | 851.8 | 847.6 | 845.8 | –
[2] | – | – | – | – | – | 1.4962

CCc1ccccc1 [ethylbenzene] + CC1COC(=O)O1
[3], x1 = 1
Details | mass density [kg/m3]
293.15 K | 867.8
303.15 K | 858.6
313.15 K | 851.8
323.15 K | 847.6
333.15 K | 845.8

C=Cc1ccccc1 [styrene]
Details | mass density, 293.15 K [kg/m3] | mass density, 303.15 K [kg/m3] | mass density, 313.15 K [kg/m3] | mass density, 323.15 K [kg/m3] | mass density, 333.15 K [kg/m3] | mass density, 343.15 K [kg/m3] | mass density, 353.15 K [kg/m3] | refractive index, 298.15 K
[1] | 906 | 896.4 | 886.9 | 877.3 | 867.8 | 858.2 | 848.6 | –
[2] | – | – | – | – | – | – | – | 1.546

Cc1ccccc1 [toluene]
Details | mass density, 293.15 K [kg/m3] | mass density, 303.15 K [kg/m3] | mass density, 313.15 K [kg/m3] | mass density, 323.15 K [kg/m3] | mass density, 333.15 K [kg/m3] | mass density, 343.15 K [kg/m3] | mass density, 353.15 K [kg/m3] | refractive index, 298.15 K
[1] | 866.8 | 857.5 | 848.2 | 838.9 | 829.5 | 820 | 810.5 | –
[2] | – | – | – | – | – | – | – | 1.4965

Cc1ccccc1 [toluene] + CC1COC(=O)O1
[3], x1 = 1
Details | mass density [kg/m3]
293.15 K | 866.8
303.15 K | 857.5
313.15 K | 848.2
323.15 K | 838.9
333.15 K | 829.5
343.15 K | 820
353.15 K | 810.5
